Each block holds one compound with its values, some of them ahead of it.
Experiments:
[1] = molecular target: Epidermal growth factor receptor (Homo sapiens, UniProt P00533); type: functional
[2] = molecular target: Receptor tyrosine-protein kinase erbB-2 (Homo sapiens, UniProt P04626); type: functional
[3] = molecular target: T1, Peroxisome proliferator-activated receptor gamma (Homo sapiens, UniProt P37231); type: functional
T1 sequence (P37231 whole entry): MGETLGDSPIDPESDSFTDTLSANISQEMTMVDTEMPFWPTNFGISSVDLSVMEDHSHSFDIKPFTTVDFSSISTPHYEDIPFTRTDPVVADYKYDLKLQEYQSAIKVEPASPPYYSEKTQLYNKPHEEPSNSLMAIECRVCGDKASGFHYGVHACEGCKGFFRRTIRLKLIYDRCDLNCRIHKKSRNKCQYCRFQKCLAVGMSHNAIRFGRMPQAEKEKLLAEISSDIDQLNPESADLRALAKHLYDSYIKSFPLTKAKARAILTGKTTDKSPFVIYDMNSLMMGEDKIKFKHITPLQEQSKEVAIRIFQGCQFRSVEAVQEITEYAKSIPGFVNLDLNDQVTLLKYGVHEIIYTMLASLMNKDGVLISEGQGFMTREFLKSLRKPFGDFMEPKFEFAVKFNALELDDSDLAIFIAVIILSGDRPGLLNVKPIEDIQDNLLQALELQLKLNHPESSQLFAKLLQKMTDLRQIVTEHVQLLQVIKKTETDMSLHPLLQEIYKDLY

[4] = molecular target: Gamma-aminobutyric acid receptor subunit alpha-1/alpha-2/beta-2/gamma-2 (Homo sapiens, UniProt P14867+P18507+P47869+P47870); type: functional, cell-based
[5] = molecular target: T2, Androgen receptor (Homo sapiens, UniProt P10275)
T2 sequence (P10275 whole entry): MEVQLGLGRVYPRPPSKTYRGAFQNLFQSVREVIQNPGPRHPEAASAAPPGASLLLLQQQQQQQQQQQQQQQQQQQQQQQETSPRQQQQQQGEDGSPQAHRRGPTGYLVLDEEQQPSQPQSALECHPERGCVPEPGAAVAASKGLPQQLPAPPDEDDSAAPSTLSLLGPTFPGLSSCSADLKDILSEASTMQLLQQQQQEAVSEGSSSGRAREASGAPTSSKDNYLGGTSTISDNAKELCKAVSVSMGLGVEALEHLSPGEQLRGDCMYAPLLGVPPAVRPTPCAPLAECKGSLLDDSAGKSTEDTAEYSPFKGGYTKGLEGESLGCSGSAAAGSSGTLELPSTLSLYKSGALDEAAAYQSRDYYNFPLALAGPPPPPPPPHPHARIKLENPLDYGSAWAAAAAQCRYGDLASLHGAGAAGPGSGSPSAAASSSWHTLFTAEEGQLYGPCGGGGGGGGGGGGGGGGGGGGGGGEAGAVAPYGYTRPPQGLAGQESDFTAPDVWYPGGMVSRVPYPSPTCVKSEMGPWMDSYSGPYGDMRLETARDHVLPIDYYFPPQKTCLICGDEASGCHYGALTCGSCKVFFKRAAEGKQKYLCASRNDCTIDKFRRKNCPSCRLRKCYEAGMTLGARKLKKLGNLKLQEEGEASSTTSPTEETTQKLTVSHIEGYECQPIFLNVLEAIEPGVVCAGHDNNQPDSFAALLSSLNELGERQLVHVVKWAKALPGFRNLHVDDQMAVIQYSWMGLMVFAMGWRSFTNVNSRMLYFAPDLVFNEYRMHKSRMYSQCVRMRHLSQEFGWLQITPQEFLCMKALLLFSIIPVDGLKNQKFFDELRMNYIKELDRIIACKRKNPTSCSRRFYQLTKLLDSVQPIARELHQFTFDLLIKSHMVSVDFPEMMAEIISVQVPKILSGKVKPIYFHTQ

[6] = molecular target: T3, Corticotropin-releasing factor receptor 1 (Homo sapiens, UniProt P34998)
T3 sequence (P34998 whole entry): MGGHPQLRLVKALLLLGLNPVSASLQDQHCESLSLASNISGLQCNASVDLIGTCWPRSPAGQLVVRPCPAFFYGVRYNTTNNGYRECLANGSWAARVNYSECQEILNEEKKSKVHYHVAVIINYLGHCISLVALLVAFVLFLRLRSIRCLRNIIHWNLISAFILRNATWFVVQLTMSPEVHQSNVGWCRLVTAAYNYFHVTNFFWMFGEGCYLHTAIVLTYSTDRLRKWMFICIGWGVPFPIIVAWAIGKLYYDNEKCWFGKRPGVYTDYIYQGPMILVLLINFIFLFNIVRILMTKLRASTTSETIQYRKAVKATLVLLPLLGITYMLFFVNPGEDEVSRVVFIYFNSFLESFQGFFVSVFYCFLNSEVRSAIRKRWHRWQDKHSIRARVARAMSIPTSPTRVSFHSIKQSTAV

[7] = molecular target: T4, Corticotropin-releasing factor receptor 2 (Homo sapiens, UniProt Q13324)
T4 sequence (Q13324 whole entry): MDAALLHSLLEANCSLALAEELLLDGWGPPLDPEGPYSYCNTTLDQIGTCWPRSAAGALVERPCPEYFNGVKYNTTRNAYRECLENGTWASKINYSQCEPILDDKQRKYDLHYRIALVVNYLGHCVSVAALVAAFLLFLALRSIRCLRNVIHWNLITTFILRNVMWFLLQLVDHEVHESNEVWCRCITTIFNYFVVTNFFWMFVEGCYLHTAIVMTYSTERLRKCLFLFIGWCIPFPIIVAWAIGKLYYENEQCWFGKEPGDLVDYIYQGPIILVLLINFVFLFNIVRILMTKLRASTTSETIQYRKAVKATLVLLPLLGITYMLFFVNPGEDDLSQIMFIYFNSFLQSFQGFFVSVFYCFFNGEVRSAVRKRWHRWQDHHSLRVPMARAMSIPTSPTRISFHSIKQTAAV

[8] = molecular target: Estrogen receptor beta (Homo sapiens, UniProt Q92731)
[9] = molecular target: Glucagon receptor (Homo sapiens, UniProt P47871)
Further: assay procedure not described here.

Chain of Gamma-aminobutyric acid receptor subunit alpha-1/alpha-2/beta-2/gamma-2 (P14867 whole entry): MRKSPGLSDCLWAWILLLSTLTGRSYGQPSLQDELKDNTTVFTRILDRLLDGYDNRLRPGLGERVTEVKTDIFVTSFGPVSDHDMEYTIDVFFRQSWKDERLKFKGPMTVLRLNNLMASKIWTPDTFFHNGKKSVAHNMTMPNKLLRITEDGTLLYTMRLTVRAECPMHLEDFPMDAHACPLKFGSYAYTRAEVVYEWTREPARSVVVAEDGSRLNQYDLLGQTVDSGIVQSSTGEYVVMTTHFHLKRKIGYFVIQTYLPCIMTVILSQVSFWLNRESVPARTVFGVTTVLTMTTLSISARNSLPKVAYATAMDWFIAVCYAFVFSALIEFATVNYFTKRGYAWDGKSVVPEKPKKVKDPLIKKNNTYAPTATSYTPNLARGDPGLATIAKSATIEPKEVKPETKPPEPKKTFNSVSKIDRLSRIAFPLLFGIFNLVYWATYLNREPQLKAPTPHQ
Chain of Gamma-aminobutyric acid receptor subunit alpha-1/alpha-2/beta-2/gamma-2 (P47870 whole entry): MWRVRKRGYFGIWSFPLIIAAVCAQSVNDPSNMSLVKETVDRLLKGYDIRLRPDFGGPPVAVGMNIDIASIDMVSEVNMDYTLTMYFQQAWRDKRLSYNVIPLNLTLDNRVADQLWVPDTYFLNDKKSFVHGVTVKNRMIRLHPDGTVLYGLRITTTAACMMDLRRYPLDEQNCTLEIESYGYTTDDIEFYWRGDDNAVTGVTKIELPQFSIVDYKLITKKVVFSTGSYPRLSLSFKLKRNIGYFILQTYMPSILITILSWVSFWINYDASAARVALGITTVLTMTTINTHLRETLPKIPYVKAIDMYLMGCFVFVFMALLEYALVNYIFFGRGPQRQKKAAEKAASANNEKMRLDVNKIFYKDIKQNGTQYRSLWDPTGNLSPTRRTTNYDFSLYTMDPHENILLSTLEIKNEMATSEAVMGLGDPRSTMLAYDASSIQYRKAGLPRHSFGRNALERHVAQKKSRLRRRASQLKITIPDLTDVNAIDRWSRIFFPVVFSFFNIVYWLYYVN
Chain of Gamma-aminobutyric acid receptor subunit alpha-1/alpha-2/beta-2/gamma-2 (P18507 whole entry): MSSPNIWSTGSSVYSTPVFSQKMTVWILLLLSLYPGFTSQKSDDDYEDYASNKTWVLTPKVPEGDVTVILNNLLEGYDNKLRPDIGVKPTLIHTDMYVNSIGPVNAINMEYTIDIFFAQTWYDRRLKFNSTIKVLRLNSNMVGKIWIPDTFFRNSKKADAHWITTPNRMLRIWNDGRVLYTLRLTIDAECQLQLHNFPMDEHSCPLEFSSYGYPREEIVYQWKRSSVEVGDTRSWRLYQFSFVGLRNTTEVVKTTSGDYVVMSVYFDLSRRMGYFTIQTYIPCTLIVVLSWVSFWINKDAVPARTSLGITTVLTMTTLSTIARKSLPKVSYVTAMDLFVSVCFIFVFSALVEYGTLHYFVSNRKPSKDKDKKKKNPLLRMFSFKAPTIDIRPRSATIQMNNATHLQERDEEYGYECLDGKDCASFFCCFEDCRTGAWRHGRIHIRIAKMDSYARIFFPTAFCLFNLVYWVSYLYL
Chain of Gamma-aminobutyric acid receptor subunit alpha-1/alpha-2/beta-2/gamma-2 (P47869 whole entry): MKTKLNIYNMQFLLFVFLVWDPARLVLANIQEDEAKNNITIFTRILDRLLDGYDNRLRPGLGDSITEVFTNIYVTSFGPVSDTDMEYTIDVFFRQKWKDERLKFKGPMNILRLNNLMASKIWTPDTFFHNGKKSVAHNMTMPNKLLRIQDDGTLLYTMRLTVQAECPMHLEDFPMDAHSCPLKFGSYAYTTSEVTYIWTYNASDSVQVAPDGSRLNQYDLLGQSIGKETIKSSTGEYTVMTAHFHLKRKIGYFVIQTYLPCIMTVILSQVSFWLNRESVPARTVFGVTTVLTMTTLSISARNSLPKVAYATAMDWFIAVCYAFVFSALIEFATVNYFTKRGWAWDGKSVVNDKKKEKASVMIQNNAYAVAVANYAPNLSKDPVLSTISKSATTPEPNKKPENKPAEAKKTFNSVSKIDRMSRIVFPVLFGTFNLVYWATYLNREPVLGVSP
Chain of Epidermal growth factor receptor (P00533 whole entry): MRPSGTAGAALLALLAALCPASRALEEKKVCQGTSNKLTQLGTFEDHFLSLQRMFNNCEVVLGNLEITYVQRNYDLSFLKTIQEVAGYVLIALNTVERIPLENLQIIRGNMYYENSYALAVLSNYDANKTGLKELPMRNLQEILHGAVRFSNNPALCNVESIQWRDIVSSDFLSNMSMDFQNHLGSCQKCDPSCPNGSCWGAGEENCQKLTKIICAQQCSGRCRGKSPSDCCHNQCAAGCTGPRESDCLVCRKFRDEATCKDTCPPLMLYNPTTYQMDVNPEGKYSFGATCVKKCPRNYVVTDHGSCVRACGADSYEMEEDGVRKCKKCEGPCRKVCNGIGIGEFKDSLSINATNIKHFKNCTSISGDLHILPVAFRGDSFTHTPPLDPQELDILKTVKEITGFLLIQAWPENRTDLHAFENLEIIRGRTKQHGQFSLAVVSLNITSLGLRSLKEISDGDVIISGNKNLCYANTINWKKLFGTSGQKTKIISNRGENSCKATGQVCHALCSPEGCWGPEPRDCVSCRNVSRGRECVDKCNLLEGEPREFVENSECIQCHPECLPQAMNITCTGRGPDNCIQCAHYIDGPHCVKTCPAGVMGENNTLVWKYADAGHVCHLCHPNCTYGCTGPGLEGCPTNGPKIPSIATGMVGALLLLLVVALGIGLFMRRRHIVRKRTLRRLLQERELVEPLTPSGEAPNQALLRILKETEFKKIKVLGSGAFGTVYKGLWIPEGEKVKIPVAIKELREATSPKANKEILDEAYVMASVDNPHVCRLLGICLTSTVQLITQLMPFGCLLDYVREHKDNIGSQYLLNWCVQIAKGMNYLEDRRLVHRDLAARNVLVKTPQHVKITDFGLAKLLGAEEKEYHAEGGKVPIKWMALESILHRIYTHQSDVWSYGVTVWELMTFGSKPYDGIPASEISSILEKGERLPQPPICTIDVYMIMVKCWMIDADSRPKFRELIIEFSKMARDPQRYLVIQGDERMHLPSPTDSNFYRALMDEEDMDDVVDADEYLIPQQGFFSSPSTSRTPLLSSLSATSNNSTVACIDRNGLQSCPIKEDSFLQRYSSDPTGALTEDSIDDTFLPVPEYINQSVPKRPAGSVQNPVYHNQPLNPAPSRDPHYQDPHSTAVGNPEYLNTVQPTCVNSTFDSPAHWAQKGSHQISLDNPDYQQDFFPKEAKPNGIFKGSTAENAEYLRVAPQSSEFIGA
Chain of Glucagon receptor (P47871 whole entry): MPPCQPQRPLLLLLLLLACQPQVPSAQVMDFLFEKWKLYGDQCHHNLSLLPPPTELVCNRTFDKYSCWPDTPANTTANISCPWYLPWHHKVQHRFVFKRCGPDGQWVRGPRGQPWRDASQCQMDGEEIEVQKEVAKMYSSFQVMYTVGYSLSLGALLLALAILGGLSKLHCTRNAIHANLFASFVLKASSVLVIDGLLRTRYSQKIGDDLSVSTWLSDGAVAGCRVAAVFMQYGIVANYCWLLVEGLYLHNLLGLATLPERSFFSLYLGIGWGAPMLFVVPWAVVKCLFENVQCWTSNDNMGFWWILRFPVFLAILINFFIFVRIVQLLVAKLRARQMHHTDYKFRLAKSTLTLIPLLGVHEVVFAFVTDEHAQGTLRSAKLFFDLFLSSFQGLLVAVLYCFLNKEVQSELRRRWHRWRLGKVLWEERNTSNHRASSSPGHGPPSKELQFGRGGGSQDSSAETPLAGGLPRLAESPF
Chain of Estrogen receptor beta (Q92731 whole entry): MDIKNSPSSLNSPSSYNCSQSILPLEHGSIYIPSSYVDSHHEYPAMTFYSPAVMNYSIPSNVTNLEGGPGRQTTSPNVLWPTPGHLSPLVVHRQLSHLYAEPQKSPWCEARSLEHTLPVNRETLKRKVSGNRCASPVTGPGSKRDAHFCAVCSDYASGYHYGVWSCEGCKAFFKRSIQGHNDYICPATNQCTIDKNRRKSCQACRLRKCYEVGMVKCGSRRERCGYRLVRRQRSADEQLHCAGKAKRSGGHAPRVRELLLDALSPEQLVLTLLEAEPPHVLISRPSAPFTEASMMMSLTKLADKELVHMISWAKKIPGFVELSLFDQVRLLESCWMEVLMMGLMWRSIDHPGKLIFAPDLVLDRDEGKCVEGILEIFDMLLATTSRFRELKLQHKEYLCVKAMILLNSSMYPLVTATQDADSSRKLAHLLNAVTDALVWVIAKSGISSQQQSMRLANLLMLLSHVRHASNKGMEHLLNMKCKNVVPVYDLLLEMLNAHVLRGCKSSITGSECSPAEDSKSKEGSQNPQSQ

AC50 [1]: > 30 µM
AC50 [2]: > 30 µM
AC50 [3]: > 30 µM
SMILES: C1CCC(C(CC2CCCCN2)C2CCCCC2)CC1 (stereo unspecified) [PERHEXILINE]

SMILES: CNC1Cc2ccccc2N(C)c2ccccc21 (stereo unspecified) [METAPRAMINE]
AC50 [1]: > 30 µM
AC50 [2]: > 30 µM
AC50 [4]: > 30 µM
AC50 [3]: > 30 µM

SMILES: CN(C)S(=O)(=O)c1ccc2c(c1)N(CCCN1CCC(CCO)CC1)c1ccccc1S2 [PIPOTIAZINE]
AC50 [5]: > 30 µM

SMILES: c1ccc([C@H]2CN3CCSC3=N2)cc1 [LEVAMISOLE]
AC50 [1]: > 30 µM
AC50 [2]: > 30 µM
AC50 [4]: > 30 µM
AC50 [3]: > 30 µM

SMILES: CCC(=O)NCC[C@@H]1CCc2ccc3c(c21)CCO3 [RAMELTEON]
AC50 [5]: > 30 µM

SMILES: C=CCc1ccccc1OCC(O)CNC(C)C (stereo unspecified) [ALPRENOLOL]
AC50 [5]: > 0.3 µM

SMILES: CN(C)CCn1nnnc1SCC1=C(C(=O)O)N2C(=O)[C@@H](NC(=O)Cc3csc(N)n3)[C@H]2SC1 [CEFOTIAM]
AC50 [5]: > 30 µM

SMILES: Cc1cc(C#N)cc(C)c1Oc1nc(Nc2ccc(C#N)cc2)nc(N)c1Br [ETRAVIRINE]
AC50 [5]: > 30 µM

AC50 [4]: > 30 µM
SMILES: CNC(=O)c1ccccc1Sc1ccc2c(/C=C/c3ccccn3)n[nH]c2c1 [AXITINIB]

SMILES: N[C@@H]1[C@H]2CN(c3nc4c(cc3F)c(=O)c(C(=O)O)cn4-c3ccc(F)cc3F)C[C@@H]12 [TROVAFLOXACIN]
AC50 [2]: > 30 µM
AC50 [4]: > 30 µM
AC50 [3]: > 30 µM

SMILES: CC(=O)Nc1ccc(O)cc1 [ACETAMINOPHEN]
AC50 [5]: > 30 µM
AC50 [4]: > 30 µM

SMILES: CCOC(=O)[C@H](CCc1ccccc1)N[C@@H](C)C(=O)N1[C@H](C(=O)O)C[C@H]2CCCC[C@@H]21 [TRANDOLAPRIL]
AC50 [5]: > 30 µM

AC50 [4]: > 30 µM
SMILES: Nc1nc(NC2CC2)c2ncn([C@H]3C=C[C@@H](CO)C3)c2n1 [ABACAVIR]

SMILES: Cc1cn([C@H]2C=C[C@@H](CO)O2)c(=O)[nH]c1=O [STAVUDINE]
AC50 [6]: > 30 µM
AC50 [7]: > 30 µM
AC50 [8]: > 30 µM
AC50 [9]: > 30 µM

AC50 [6]: > 30 µM
AC50 [7]: > 30 µM
AC50 [8]: > 30 µM
AC50 [9]: > 30 µM
SMILES: CC1=C(C(=O)O)N2C(=O)[C@@H](NC(=O)[C@H](N)c3ccccc3)[C@H]2SC1 [CEPHALEXIN ANHYDROUS]

SMILES: CCCCCCOc1nsnc1C1=CCCN(C)C1 [XANOMELINE]
AC50 [5]: > 30 µM

AC50 [6]: > 30 µM
AC50 [7]: > 30 µM
AC50 [8]: > 30 µM
AC50 [9]: > 30 µM
SMILES: Clc1ccc2nsnc2c1NC1=NCCN1 [TIZANIDINE]

SMILES: CN(C)CC(c1ccc(O)cc1)C1(O)CCCCC1 (stereo unspecified) [DESVENLAFAXINE]
AC50 [5]: > 30 µM

AC50 [6]: > 30 µM
AC50 [7]: > 30 µM
AC50 [9]: > 30 µM
SMILES: Cc1ccc(-c2cc(C(F)(F)F)nn2-c2ccc(S(N)(=O)=O)cc2)cc1 [CELECOXIB]

Reference: ChEMBL document CHEMBL5291721, “A preclinical secondary pharmacology resource illuminates target-adverse drug reaction associations of marketed drugs” (Nat Commun, 2023)
